One series deals with IL-4 mRNA. Nature of the series: Inhibition of PMA-induced IL-4 mRNA expression in EL-4 cells (PCR). The format is cell-based, mouse. Particulars: 20 μg/mL, PMA 1 ng/mL; for Inhibition (%) of IL-4 mRNA expression: vs PMA-treated group. The method, then:
Based on the results of Example 1, each of the monoacetyldiacylglycerol compounds was added to EL-4 cells at a concentration of 20 μg/mL, and the effect thereof on the inhibition of PMA-induced expression of IL-4 mRNA in the EL-4 cells was measured. Specifically, the expression level of IL-4 mRNA induced by PMA (1 ng/mL) was measured using real-time polymerase chain reaction (real-time PCR) and quantitative real time polymerase chain reaction (qPCR). For cell preparation, EL-4 cells were seeded into a 6-well plate at a concentration of 1×10^6 cells/well and cultured for 12 hours, after which the cells were treated with each of the monoacetyldiacylglycerol compounds at a concentration of 20 μg/mL for 1 hour and treated with PMA at a concentration of 1 ng/m, followed by culture for 12 hours. Total RNA was extracted from the cells using Trizol B (Invitrogen, USA) and quantified, and then cDNA was synthesized from the total RNA using an Omniscript RT kit (Qiagen, GmbH, Hilden, Germany). The synthesized cDNA as a template was mixed with each of the IL-4 and GAPDH primers shown in Table 2 below and was subjected to PCR using a PCR mix (PCR Master Mix, Bioneer, Korea) under the following conditions: denaturation at 94° C. for 5 minutes; and then 30 cycles, each consisting of 30 sec at 95° C., 45 sec at 60° C., and 45 sec at 72° C.; followed by enzyme inactivation at 72° C. for 10 minutes. The results of measuring the percent inhibition of expression of IL-4 mRNA in EL-4 cells as described above are shown in Table 3 below. The designation of each of the samples shown in Table 3 below is as described with respect to Table above.

The next series relates to MIP-2. Description: COPD mouse model: MIP-2 in bronchoalveolar lavage fluid by ELISA. The format is in vivo, BALB/c mice. Particulars: for MIP-2: BALF; for % inhibition of MIP-2: vs COPD group. As to the method:
(§1) To make COPD mouse models, 8-week-old male BALB/c mice were anesthetized with 7% chloral hydrate, and then intratracheally inhaled with 100 μl of a 1:1 mixture of 100 μg/ml of LPS and 4 mg/ml, of standard cigarette smoking (CS) extract (LPS+CS mixture) once a week for 3 weeks. […] EC-18 was dissolved in 0.5% CMC (carboxmethylcellulose sodium) to concentrations of 30 mg/kg and 60 mg/kg, and administered orally to the mice at 1 hour before intratracheal inhalation of 100 μl of the PS+CS mixture. The mice were divided into: (i) an untreated normal group (intact); (ii) a control group treated with LPS+CS (COPD-control); (iii) a test group administered orally with 30 mg/kg of EC-18 at 1 hour before treatment with LPS+CS; and (iv) a test group administered orally with 60 mg/kg of EC-18 at 1 hour before treatment with the LPS+CS mixture. After completion of the experiment, blood, bronchoalveolar lavage fluid and lung tissue were isolated from the mice of each of the groups.
(§2) The levels of CXCL-1, TNF-α and MIP-2 in the bronchoalveolar lavage isolated from the mice were measured by an enzyme-linked immunosorbent assay (ELISA). An antibody specific for each of CXCL-1, TNF-α and MIP-2 was diluted in coating buffer (291195, R&D System), coated on microwells, and then incubated overnight at 4° C. Each well was washed three times with washing buffer, and then 100 μl of serum (10-fold diluted) was added to each well. Each well was allowed to stand at room temperature for 1 hour, and then washed twice with washing buffer antibody, after which each well was treated with 100 μl of avidin-conjugated HRP (DY998, R&D System) and allowed to stand at room temperature for 1 hour, followed by washing. 100 μl of a TMB substrate was added to each well which was then allowed to stand in a dark room for 30 minutes and treated with 50 μl of a stop solution. Next, the absorbance at 450 nm was measured using an ELISA reader (Emax, Molecular Devices), and the percent inhibition of expression was calculated.
(In general: An ELISA detects its analyte on a solid surface through an enzyme-linked reagent.)

For a further series, the system named is TNF-α. Nature of the series: COPD mouse model: TNF-α in bronchoalveolar lavage fluid by ELISA. The format is in vivo, BALB/c mice. Particulars: for TNF-α: BALF; for % inhibition of TNF-α: vs COPD group. As to the method: as §1, §2
The conditions of series [1]: GLP toxicity test; cited from earlier work.
A further series has as its system CXCL-1. Description: COPD mouse model: CXCL-1 in bronchoalveolar lavage fluid by ELISA. The class given is in vivo, BALB/c mice. Particulars: for CXCL-1: BALF; for % inhibition of CXCL-1: vs COPD group. As to the method: as §1, §2
For another series, the system named is sepsis animal model. The conditions noted are these: cecal-ligation-puncture; cited from earlier work.
The test system of series [2] is total inflammatory cells in bronchoalveolar lavage fluid. Nature of the series: COPD mouse model (LPS+CS): total cell count in bronchoalveolar lavage fluid. The class given is in vivo, BALB/c mice. Particulars: BALF; for % inhibition of total cell: vs COPD group. The method, then:
as §1
(§3) After blood collection, the mice were dissected. To isolate cells from the bronchoalveolar lavage fluid (BALF), a syringe containing 1 ml of FBS-free DMEM medium was injected into the trachea and fixed with a string, and then cells were separated by performing circulation three times and were treated with ACK solution at 37° C. for 5 minutes to lyse red blood cells. Next, the cells were washed with FBS-free DMEM medium and then stained with 0.04% trypan blue, after which the number of total cells was measured.

For another series, the system named is CD4+ cells. Description: COPD mouse model: CD4+ cells in BAL by flow cytometry. The format is in vivo, BALB/c mice. The conditions noted are these: for CD4^+ cells (10^4): BAL cells; for % inhibition of CD4^+ cells: vs COPD group. The method, then: as §1
(§4) The separated BAL cells were adjusted to 5×10^5 cells, and then subjected to immunofluorescence staining at 4° C. PE-anti-CD4 (553047, BD Pharmingen) and PE-anti-Gr-1 (553128, BD Pharmingen) were added to the cells which were then incubated on ice for 30 minutes. After incubation, the cells were washed three times or more with phosphate buffered saline, and then the frequency of CD4^+ cells and Gr-1^+ neutrophils was analyzed using the Cell Quest program (643274, BD Biosciences) of a flow cytometer. Next, based on total cells, the absolute number of cells in each tissue was calculated.
Background: Flow cytometry measures light scatter and fluorescence of single cells or particles in a stream.

The subject of a further series is Gr-1+ neutrophils. Description: COPD mouse model: Gr-1+ neutrophils in BAL by flow cytometry. The class given is in vivo, BALB/c mice. The conditions noted are these: for Gr-1^+ neutrophils (10^4): BAL cells; for % inhibition of Gr-1^+ neutrophils: vs COPD group. The method, then:
as §1, §4

The subject of series [3] is neutrophils in bronchoalveolar lavage fluid. Nature of the series: COPD mouse model (LPS+CS): neutrophil count in bronchoalveolar lavage fluid. The conditions noted are these: BALF; for % inhibition of neutrophil: vs COPD group. The format is in vivo, BALB/c mice. As to the method:
as §1, §3

The next series has as its system EL-4 cells. The conditions noted are these: mouse, 24 h, 10 μg/ml.

Marks after values point to notes of the source that are not given here.

Consider `CCCCCCCCCCCCCCCCCC(=O)OC(COC(C)=O)COC(=O)CCCCCCCCCCCCCCC` (stereo not shown) [PSAG, 1-palmitoyl-2-stearoyl-3-acetylglycerol], for which, in the series on IL-4 mRNA, the “Expression level of IL-4 mRNA (percentage relative to PMA-treated group)” value worked out at 70.49 ± 17.78 percentage and the “Inhibition (%) of IL-4 mRNA expression” value was 29.51%.

Consider `CCCCCCCCCCCCCCCC(=O)OCC(COC(C)=O)OC(=O)CCCCCCCCCCCCCCC` (stereo not shown) [PPAG, 1-palmitoyl-2-palmitoyl-3-acetylglycerol], for which, in the series on IL-4 mRNA, the “Expression level of IL-4 mRNA (percentage relative to PMA-treated group)” value is reported as 48.62 ± 19.38 percentage and the “Inhibition (%) of IL-4 mRNA expression” value came out at 51.38%.

As for `CCCCC/C=C\C/C=C\CCCCCCCC(=O)OCC(COC(C)=O)OC(=O)CCCCCCCCCCCCCCC` (stereo not shown) [LPAG, 1-linoeoyl-2-palmitoyl-3-acetylglycerol], the “Expression level of IL-4 mRNA (percentage relative to PMA-treated group)” value with IL-4 mRNA turned out to be 61.11 ± 27.49 percentage.

On to `CCCCC/C=C\C/C=C\CCCCCCCC(=O)OC(COC(C)=O)COC(=O)CCCCCCCCCCCCCCC` (stereo not shown) [EC-18, 1-palmitoyl-2-linoleoyl-3-acetylglycerol], for which the results for the “MIP-2” value with MIP-2 (30 mg/kg oral) and with MIP-2 (60 mg/kg oral) were 28.9 ± 5.72 pg/mL and 17.6 ± 4.07 pg/mL, respectively. In addition, the “% inhibition of MIP-2” value was determined as 40.6% in the series on MIP-2 (30 mg/kg oral) and 63.8% in the series on MIP-2 (60 mg/kg oral). For the same molecule, the “TNF-α” value in the series with TNF-α (30 mg/kg oral) stood at 22.4 ± 13.98 pg/mL; with TNF-α (60 mg/kg oral), 13.4 ± 5.33 pg/mL. The “% inhibition of TNF-α” value turned out to be 36.0% in the series with TNF-α (30 mg/kg oral) and 61.8% with TNF-α (60 mg/kg oral). For the same molecule, in [1], the toxicity result was “no-toxicity”. Besides, the “CXCL-1” value in the series with CXCL-1 (30 mg/kg oral) was determined as 264.3 ± 79.77 pg/mL; with CXCL-1 (60 mg/kg oral), 142.9 ± 26.99 pg/mL. The “% inhibition of CXCL-1” value worked out at 15.4% in the series on CXCL-1 (30 mg/kg oral) and 54.3% with CXCL-1 (60 mg/kg oral). For the same molecule, the “survivability ratio of animals” value with sepsis animal model is listed as “increases survivability ratio of animals”. For the same molecule, the “Total cell (10^6)” value in series [2] (30 mg/kg oral) is 81.0 ± 12.14^ 10^6; in series [2] (60 mg/kg oral), 52.8 ± 10.41* 10^6. The results for the “% inhibition of total cell” value in series [2] (30 mg/kg oral) and in series [2] (60 mg/kg oral) were 15.1% and 44.8%, respectively. Besides, the “CD4^+ cells (10^4)” value in the series on CD4+ cells (30 mg/kg oral) is on record as 308.2 ± 66.78 10^4; with CD4+ cells (60 mg/kg oral) it was 152.8 ± 66.25 10^4. The entries for the “% inhibition of CD4^+ cells” value in the series on CD4+ cells (30 mg/kg oral) and with CD4+ cells (60 mg/kg oral) were 39.6% and 70.0%, respectively. Moreover, the “Expression level of IL-4 mRNA (percentage relative to PMA-treated group)” value in the series on IL-4 mRNA came out at 78.17 ± 6.26 percentage. In addition, the “Inhibition (%) of IL-4 mRNA expression” value in the series with IL-4 mRNA was 21.83%. Moreover, the “Gr-1^+ neutrophils (10^4)” value in the series with Gr-1+ neutrophils (30 mg/kg oral) was 20.0 ± 6.97 10^4; in the series on Gr-1+ neutrophils (60 mg/kg oral) it was 12.6 ± 4.93 10^4. The “% inhibition of Gr-1^+ neutrophils” value with Gr-1+ neutrophils (30 mg/kg oral) worked out at 40.9%; in the series with Gr-1+ neutrophils (60 mg/kg oral), 62.7%. Moreover, the Neutrophil result is given as “no great change” in series [3] (30 mg/kg oral); 196.9 ± 31.61 in series [3] (30 mg/kg oral, listed as EC18); 116.8 ± 37.43 in series [3] (60 mg/kg oral). For the same molecule, the entries for the “% inhibition of neutrophil” value in [3] (30 mg/kg oral) and in [3] (60 mg/kg oral) were 3% and 42%, respectively.

Take `CCCCCCCC/C=C\CCCCCCCC(=O)OCC(COC(C)=O)OC(=O)CCCCCCCCCCCCCCCCC` (stereo not shown) [OSAG, 1-oleoyl-2-stearoyl-3-acetylglycerol]: in the series with IL-4 mRNA, the “Expression level of IL-4 mRNA (percentage relative to PMA-treated group)” value is recorded as 55.84 ± 25.77 percentage and the “Inhibition (%) of IL-4 mRNA expression” value was 44.16%.

Take `CCCCC/C=C\C/C=C\CCCCCCCC(=O)OCC(COC(C)=O)OC(=O)CCCCCCCCCCCCCCCCC` (stereo not shown) [LSAG, 1-linoeoyl-2-stearoyl-3-acetylglycerol]: the “Expression level of IL-4 mRNA (percentage relative to PMA-treated group)” value in the series on IL-4 mRNA turned out to be 41.62 ± 17.61 percentage.

Take `CCCCCCCC/C=C\CCCCCCCC(=O)OC(COC(C)=O)COC(=O)CCCCCCCCCCCCCCC` (stereo not shown) [POAG, 1-palmitoyl-2-oleoyl-3-acetylglycerol]: the “EL-4 cell viability (%, mean ± SD)” value with EL-4 cells is on record as 106.39 ± 1.19%. Besides, in the series with IL-4 mRNA, the “Expression level of IL-4 mRNA (percentage relative to PMA-treated group)” value was found to be 75.47 ± 13.15 percentage and the “Inhibition (%) of IL-4 mRNA expression” value was 24.53%.

Turning to `CCCCCCCC/C=C\CCCCCCCC(=O)OCC(COC(C)=O)OC(=O)CCCCCCCCCCCCCCC` (stereo not shown) [OPAG, 1-oleoyl-2-palmitoyl-3-acetylglycerol], in the series on IL-4 mRNA, the “Expression level of IL-4 mRNA (percentage relative to PMA-treated group)” value was determined as 58.58 ± 21.74 percentage and the “Inhibition (%) of IL-4 mRNA expression” value was determined as 41.42%.

(Values after patent US10765655B2, “Composition containing monoacetyldiglyceride compound as active ingredient for preventing or treating chronic obstructive pulmonary disease” (ENZYCHEM LIFESCIENCES CORPORATION, priority 2013, dated 2020).)
